Tested on: Human platelet aggregation induced by ADP (platelet rich plasma)
Assay: Inhibition of human platelet aggregation induced by ADP
Type: cell-based
Conditions: human PRP; aggregation induced by ADP at final concentration of 2.5 μM; 37° C.
Procedure: Inhibition of Human Platelet Aggregation Induced by ADP
Human blood was obtained from healthy volunteers and mixed with 1/10 volume of 3.8% sodium citrate, pH 7.4. The citrate blood was centrifuged at 150×g for 10 minutes and the platelet rich plasma (PRP) was removed. The remaining blood was centrifuged for a further 10 minutes at 1500×g to prepare the platelet poor plasma (PPP), which was used as a reference for platelet aggregation. Aggregation studies were carried out using HEMATRACER 801 (NBS, Japan), a 8 channel aggregometer. The test compound solution (25 μl) and the PRP (225 μl) were mixed and stirred at 1000 rpm at 37° C. for 2 minutes. Aggregation was induced by ADP solution at the final concentration of 2.5 μM.

IC50: < 100 nM
Structure (SMILES): CCOC(=O)COc1cccc(CN2C[C@H](O)C[C@@H]2c2nc(-c3ccccc3)c(-c3ccccc3)o2)c1 [(1)]

Reference: patent US6660759B1, “4.5-diaryloxazole compounds with prostaglandin I2 (PGI2) agonistic activity” (Fujisawa Pharmaceutical Co. Ltd., priority 1999, dated 2003)
